Experimental data reported in ChEMBL document CHEMBL4804281, “STK4 inhibitors for treatment of hematologic malignancies” (2020).
The source made the active and inactive calls. No cut-off for these calls is given here.

How the values were obtained:
MM1.S = assay: Downregulation of phosphorylated-MOB1 protein level in human MM1.S cells at 1 to 10 uM measured after 6 hrs by Western blot analysis; assay type: functional, cell-based; details: dose 1-10 µM
[1] = target: Serine/threonine-protein kinase 26 (Homo sapiens) (UniProt Q9P289); assay: Inhibition of MST4 in human NCI-H929 cells at 10 uM by mass spectroscopic analysis relative to control; assay type: cell-based
[2] = target: RAC-beta serine/threonine-protein kinase (Homo sapiens) (UniProt P31751); assay: Inhibition of AKT2 in human NCI-H929 cells at 10 uM by mass spectroscopic analysis relative to control; assay type: cell-based
[3] = target: Rho-associated protein kinase 1 (Homo sapiens) (UniProt Q13464); assay: Inhibition of ROCK1 in human NCI-H929 cells at 10 uM by mass spectroscopic analysis relative to control; assay type: cell-based
[4] = target: RAC-gamma serine/threonine-protein kinase (Homo sapiens) (UniProt Q9Y243); assay: Inhibition of AKT3 in human NCI-H929 cells at 10 uM by mass spectroscopic analysis relative to control; assay type: cell-based
[5] = target: Ribosomal protein S6 kinase alpha-2 (Homo sapiens) (UniProt Q15349); assay: Inhibition of RSK3 domain 1 in human NCI-H929 cells at 10 uM by mass spectroscopic analysis relative to control; assay type: cell-based
[6] = target: Cyclin-dependent kinase 11B (Homo sapiens) (UniProt P21127); assay: Inhibition of PITSLRE in human NCI-H929 cells at 10 uM by mass spectroscopic analysis relative to control; assay type: cell-based
[7] = target: Bone morphogenetic protein receptor type-1B (Homo sapiens) (UniProt O00238); assay: Inhibition of BMPR1B in human NCI-H929 cells at 10 uM by mass spectroscopic analysis relative to control; assay type: cell-based
[8] = target: DNA-dependent protein kinase catalytic subunit (Homo sapiens) (UniProt P78527); assay: Inhibition of DNAPK in human NCI-H929 cells at 10 uM by mass spectroscopic analysis relative to control; assay type: cell-based
[9] = target: Cyclin-dependent kinase 8 (Homo sapiens) (UniProt P49336); assay: Inhibition of CDK8 in human NCI-H929 cells at 10 uM by mass spectroscopic analysis relative to control; assay type: cell-based
[10] = target: Dual specificity mitogen-activated protein kinase kinase 2 (Homo sapiens) (UniProt P36507); assay: Inhibition of MAP2K2 in human NCI-H929 cells at 10 uM by mass spectroscopic analysis relative to control; assay type: cell-based
[11] = target: T1, Tyrosine-protein kinase receptor TYRO3 (Homo sapiens) (UniProt Q06418); assay: Inhibition of TYRO3 in human NCI-H929 cells at 10 uM by mass spectroscopic analysis relative to control; assay type: cell-based
T1 sequence (whole entry): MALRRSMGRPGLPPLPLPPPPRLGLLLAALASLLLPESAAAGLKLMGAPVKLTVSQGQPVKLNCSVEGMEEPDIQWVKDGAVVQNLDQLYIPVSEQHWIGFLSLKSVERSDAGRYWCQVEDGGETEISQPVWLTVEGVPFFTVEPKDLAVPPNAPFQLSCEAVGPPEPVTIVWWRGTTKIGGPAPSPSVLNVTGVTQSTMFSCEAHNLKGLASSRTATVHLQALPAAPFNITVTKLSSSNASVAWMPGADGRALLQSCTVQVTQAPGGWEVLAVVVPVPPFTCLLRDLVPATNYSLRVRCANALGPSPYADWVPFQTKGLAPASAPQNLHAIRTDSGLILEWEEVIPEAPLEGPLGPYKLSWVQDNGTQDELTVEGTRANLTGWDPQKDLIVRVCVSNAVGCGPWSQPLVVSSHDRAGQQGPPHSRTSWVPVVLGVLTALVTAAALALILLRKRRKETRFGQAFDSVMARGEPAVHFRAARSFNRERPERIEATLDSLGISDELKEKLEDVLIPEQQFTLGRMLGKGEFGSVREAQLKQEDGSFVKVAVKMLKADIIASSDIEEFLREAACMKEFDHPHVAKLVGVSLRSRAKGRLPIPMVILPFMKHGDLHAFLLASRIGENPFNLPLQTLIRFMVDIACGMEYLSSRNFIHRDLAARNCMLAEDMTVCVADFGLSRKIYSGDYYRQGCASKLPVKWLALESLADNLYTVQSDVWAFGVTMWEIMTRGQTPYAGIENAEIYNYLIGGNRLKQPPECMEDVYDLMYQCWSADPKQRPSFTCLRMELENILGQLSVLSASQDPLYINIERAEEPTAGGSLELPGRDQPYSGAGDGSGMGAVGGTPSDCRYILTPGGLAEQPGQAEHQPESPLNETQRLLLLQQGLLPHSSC

[12] = target: Cyclin-dependent kinase 18 (Homo sapiens) (UniProt Q07002); assay: Inhibition of PCTAIRE3 in human NCI-H929 cells at 10 uM by mass spectroscopic analysis relative to control; assay type: cell-based
[13] = target: Cyclin-dependent kinase 19 (Homo sapiens) (UniProt Q9BWU1); assay: Inhibition of CDK11 in human NCI-H929 cells at 10 uM by mass spectroscopic analysis relative to control; assay type: cell-based
[14] = target: Microtubule-associated serine/threonine-protein kinase 1 (Homo sapiens) (UniProt Q9Y2H9); assay: Inhibition of MAST1 in human NCI-H929 cells at 10 uM by mass spectroscopic analysis relative to control; assay type: cell-based
[15] = target: T2, Aurora kinase C (Homo sapiens) (UniProt Q9UQB9); assay: Inhibition of AURC in human NCI-H929 cells at 10 uM by mass spectroscopic analysis relative to control; assay type: cell-based
T2 sequence (whole entry): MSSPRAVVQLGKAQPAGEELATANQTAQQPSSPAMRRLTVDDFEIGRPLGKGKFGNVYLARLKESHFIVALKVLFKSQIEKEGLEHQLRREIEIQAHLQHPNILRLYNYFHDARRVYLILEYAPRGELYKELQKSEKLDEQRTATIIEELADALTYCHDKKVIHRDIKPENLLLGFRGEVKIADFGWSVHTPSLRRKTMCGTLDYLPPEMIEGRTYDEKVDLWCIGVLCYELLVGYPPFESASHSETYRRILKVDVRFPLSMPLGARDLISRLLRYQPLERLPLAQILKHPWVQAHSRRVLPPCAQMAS

[16] = target: Calcium/calmodulin-dependent protein kinase kinase 2 (Homo sapiens) (UniProt Q96RR4); assay: Inhibition of CAMKK2 in human NCI-H929 cells at 10 uM by mass spectroscopic analysis relative to control; assay type: cell-based
Chain of Calcium/calmodulin-dependent protein kinase kinase 2 (Homo sapiens) (Q96RR4 2-588 limits assumed): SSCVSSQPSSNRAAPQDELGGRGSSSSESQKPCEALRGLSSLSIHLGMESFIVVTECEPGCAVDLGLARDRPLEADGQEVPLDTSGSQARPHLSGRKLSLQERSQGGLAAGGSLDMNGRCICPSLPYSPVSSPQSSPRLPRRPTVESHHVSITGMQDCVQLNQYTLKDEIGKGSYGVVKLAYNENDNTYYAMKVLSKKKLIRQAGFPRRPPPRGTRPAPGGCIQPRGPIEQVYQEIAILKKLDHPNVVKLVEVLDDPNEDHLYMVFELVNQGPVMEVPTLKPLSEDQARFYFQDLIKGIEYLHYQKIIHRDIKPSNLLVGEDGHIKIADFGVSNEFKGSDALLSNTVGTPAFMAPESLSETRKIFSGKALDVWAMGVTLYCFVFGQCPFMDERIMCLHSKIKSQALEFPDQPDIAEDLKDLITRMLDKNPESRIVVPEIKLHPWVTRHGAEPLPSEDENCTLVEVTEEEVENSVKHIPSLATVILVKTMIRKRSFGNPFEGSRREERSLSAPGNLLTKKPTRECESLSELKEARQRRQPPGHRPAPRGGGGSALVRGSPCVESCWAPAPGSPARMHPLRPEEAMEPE

Chain of Microtubule-associated serine/threonine-protein kinase 1 (Homo sapiens) (Q9Y2H9 whole entry, looked up): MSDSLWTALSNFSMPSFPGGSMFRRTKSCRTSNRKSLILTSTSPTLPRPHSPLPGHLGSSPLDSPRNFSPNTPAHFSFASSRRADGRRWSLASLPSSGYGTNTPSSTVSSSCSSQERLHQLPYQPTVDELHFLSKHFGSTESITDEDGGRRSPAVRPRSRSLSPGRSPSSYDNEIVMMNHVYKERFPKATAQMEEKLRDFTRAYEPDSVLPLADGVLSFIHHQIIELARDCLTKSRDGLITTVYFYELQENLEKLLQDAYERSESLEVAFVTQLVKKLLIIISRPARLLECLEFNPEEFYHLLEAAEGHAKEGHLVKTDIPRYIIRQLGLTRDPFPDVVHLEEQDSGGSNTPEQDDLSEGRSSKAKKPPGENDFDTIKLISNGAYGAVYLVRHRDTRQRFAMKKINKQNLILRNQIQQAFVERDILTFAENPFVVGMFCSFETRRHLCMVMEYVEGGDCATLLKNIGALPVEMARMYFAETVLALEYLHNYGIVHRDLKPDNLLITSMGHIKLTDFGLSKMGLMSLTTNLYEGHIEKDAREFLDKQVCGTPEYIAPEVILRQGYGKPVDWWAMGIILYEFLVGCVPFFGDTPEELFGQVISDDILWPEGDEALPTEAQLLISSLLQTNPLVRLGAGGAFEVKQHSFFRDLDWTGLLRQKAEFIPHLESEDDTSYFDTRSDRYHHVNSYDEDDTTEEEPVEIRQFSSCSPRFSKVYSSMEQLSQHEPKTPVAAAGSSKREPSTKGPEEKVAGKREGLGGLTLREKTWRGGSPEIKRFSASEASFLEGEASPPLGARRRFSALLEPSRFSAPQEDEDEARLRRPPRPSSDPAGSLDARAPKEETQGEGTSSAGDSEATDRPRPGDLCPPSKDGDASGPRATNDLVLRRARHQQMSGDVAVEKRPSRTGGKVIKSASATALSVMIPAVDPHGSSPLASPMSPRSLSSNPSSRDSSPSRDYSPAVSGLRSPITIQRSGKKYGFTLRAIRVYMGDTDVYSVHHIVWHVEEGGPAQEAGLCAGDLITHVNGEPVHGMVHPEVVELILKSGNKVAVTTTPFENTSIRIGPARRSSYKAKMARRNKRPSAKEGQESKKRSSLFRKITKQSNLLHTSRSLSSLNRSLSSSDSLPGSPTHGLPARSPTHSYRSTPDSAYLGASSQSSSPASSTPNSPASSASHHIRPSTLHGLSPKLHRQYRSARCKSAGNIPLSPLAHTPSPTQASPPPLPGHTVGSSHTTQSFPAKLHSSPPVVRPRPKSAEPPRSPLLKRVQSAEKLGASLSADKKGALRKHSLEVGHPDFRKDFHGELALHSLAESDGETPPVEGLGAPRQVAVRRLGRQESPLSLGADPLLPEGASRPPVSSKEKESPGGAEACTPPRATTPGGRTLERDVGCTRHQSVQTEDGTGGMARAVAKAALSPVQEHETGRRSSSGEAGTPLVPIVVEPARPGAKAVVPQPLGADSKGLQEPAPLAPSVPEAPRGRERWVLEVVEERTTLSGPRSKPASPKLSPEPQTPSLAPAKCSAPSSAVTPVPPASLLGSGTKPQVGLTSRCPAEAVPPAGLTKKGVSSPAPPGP
Chain of Cyclin-dependent kinase 11B (Homo sapiens) (P21127 whole entry): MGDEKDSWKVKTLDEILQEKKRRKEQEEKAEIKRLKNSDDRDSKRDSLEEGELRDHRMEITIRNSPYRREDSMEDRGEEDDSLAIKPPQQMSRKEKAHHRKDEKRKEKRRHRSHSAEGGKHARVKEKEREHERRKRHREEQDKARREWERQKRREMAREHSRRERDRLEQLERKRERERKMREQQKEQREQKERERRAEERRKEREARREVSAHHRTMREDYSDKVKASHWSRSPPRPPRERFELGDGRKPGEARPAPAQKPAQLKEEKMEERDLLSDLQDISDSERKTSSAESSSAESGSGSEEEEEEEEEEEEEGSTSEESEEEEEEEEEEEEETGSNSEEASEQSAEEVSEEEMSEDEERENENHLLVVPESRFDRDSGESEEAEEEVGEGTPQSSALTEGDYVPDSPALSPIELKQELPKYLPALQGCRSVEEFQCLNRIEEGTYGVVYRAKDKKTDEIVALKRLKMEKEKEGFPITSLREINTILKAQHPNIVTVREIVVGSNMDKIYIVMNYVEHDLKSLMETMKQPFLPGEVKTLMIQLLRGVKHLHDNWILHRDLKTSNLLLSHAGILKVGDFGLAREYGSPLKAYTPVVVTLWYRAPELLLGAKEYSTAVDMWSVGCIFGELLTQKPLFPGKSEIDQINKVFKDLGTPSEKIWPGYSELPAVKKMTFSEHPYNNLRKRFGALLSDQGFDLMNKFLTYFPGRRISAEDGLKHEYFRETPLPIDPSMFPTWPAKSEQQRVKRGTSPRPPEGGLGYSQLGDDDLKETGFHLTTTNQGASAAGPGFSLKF
Chain of Dual specificity mitogen-activated protein kinase kinase 2 (Homo sapiens) (P36507 whole entry): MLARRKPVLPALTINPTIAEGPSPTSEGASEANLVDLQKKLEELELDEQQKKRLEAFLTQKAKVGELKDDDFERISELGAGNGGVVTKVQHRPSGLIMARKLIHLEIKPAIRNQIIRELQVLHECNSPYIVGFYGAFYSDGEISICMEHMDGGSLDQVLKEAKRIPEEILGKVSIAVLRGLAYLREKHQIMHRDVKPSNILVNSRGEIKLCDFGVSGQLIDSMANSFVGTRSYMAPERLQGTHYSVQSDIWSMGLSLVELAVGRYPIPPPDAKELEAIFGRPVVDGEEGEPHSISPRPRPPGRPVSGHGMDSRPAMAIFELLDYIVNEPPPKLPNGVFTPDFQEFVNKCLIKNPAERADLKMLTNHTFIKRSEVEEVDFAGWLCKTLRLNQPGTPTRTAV
Chain of RAC-beta serine/threonine-protein kinase (Homo sapiens) (P31751 whole entry): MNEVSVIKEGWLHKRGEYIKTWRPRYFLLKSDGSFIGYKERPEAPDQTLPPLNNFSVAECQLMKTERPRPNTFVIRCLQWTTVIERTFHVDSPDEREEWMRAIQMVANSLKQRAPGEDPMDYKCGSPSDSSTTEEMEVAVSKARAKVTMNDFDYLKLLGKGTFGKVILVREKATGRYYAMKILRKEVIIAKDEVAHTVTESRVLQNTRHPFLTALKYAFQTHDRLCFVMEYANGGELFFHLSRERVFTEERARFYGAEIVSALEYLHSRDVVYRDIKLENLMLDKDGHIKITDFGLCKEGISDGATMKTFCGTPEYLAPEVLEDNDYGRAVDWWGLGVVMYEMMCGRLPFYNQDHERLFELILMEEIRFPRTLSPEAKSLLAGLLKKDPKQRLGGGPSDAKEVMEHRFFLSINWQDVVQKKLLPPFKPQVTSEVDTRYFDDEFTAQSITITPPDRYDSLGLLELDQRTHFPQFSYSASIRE
Chain of Cyclin-dependent kinase 8 (Homo sapiens) (P49336 whole entry): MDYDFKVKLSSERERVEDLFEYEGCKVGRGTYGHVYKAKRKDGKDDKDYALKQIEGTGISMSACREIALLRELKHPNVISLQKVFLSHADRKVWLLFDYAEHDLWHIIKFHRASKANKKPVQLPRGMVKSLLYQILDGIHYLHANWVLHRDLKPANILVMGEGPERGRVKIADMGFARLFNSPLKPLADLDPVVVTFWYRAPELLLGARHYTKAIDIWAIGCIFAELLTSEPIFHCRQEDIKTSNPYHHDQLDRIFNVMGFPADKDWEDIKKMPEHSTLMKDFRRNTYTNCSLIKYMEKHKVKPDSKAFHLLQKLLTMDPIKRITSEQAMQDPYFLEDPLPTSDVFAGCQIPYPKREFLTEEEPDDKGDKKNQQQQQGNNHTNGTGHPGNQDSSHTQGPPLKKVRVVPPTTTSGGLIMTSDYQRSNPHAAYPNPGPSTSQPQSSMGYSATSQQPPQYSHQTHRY
Chain of Cyclin-dependent kinase 18 (Homo sapiens) (Q07002 whole entry): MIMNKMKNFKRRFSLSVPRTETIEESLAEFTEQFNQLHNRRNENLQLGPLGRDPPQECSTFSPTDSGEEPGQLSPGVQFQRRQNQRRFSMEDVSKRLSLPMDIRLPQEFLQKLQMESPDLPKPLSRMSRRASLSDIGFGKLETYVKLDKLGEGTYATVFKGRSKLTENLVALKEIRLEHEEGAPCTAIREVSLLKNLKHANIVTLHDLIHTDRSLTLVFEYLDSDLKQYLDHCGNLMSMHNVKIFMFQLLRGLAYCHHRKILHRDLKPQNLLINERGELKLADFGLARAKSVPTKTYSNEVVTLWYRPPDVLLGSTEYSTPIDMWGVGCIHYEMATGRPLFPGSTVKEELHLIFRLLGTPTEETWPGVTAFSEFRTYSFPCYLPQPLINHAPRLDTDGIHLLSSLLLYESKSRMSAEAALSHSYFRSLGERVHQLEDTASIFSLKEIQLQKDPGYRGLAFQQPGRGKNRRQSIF

| Structure (SMILES) | Activity (MM1.S) | inhibition [1] [%] | inhibition [2] [%] | inhibition [3] [%] | inhibition [4] [%] | inhibition [5] [%] | inhibition [6] [%] | inhibition [7] [%] | inhibition [8] [%] | inhibition [9] [%] | inhibition [10] [%] | inhibition [11] [%] | inhibition [12] [%] | inhibition [13] [%] | inhibition [14] [%] | inhibition [15] [%] | inhibition [16] [%] |
| --- | --- | --- | --- | --- | --- | --- | --- | --- | --- | --- | --- | --- | --- | --- | --- | --- | --- |
| Nc1ncc(-c2cccc([N+](=O)[O-])c2F)cc1-c1ccc2c(c1)CCNC2=O | Active | 0 | 0 | 0 | 0 | – | – | – | – | – | – | – | – | – | – | – | – |
| Nc1ncc(-c2ccc(NS(=O)(=O)C3CC3)cc2F)cc1-c1ccc2c(c1)CCNC2=O | – | < 75 | – | – | – | 0 | 0 | 0 | 0 | 0 | 0 | 0 | 0 | 0 | 0 | – | – |
| CN(C1CC1)S(=O)(=O)c1ccc(-c2cnc(N)c(-c3ccc4c(c3)CCNC4=O)c2)c(F)c1 | Active | < 90 | 0 | 0 | 0 | 0 | 0 | – | < 90 | 0 | – | – | – | 0 | – | 0 | 50 |
| Nc1ncc(-c2cccc3ncsc23)cc1-c1ccc2c(c1)CCNC2=O | Active | 0 | 0 | 0 | 0 | 0 | 0 | – | < 75 | 50 | – | – | – | 50 | – | 0 | 50 |
| COc1cc(NS(=O)(=O)C2CC2)ccc1-c1cnc(N)c(-c2ccc3c(c2)CCNC3=O)c1 | – | – | – | – | – | 0 | 0 | 75 | – | 0 | 0 | 0 | 0 | – | 0 | 0 | 0 |
| Nc1ncc(-c2ccc(NS(=O)(=O)C3CC3)cc2OC2CCCCC2)cc1-c1ccc2c(c1)CCNC2=O | – | – | – | – | – | 50 | 0 | > 90 | 0 | 0 | 0 | 0 | 0 | 0 | 0 | – | – |
